Data published in patent US10961236B2, “(S)-2-(1-cyclopropylethyl)-5-(4-methyl-2-((6-(2-oxopyrrolidin-1-yl)pyridin-2-yl)amino) thiazol-5-yl)-7-(methylsulfonyl)isoindolin-1-one as a phosphatidylinositol 3-kinase inhibitor” (AstraZeneca AB, priority 2016, dated 2021).

How the values were obtained:
Type in all cases: biochemical
[1] = target: recombinant human PI3Kβ (6-His(p110-p85α)) (Homo sapiens (Human), UniProt P42338); test: Enzymatic activity assay for recombinant human PI3Kβ (ADP-Glo); conditions: 1.2 nM PI3Kβ, 20 μM ATP, 80 μM DiC8-PIP2, ADP-Glo
Chain of recombinant human PI3Kβ (6-His(p110-p85α)) (P42338 whole entry): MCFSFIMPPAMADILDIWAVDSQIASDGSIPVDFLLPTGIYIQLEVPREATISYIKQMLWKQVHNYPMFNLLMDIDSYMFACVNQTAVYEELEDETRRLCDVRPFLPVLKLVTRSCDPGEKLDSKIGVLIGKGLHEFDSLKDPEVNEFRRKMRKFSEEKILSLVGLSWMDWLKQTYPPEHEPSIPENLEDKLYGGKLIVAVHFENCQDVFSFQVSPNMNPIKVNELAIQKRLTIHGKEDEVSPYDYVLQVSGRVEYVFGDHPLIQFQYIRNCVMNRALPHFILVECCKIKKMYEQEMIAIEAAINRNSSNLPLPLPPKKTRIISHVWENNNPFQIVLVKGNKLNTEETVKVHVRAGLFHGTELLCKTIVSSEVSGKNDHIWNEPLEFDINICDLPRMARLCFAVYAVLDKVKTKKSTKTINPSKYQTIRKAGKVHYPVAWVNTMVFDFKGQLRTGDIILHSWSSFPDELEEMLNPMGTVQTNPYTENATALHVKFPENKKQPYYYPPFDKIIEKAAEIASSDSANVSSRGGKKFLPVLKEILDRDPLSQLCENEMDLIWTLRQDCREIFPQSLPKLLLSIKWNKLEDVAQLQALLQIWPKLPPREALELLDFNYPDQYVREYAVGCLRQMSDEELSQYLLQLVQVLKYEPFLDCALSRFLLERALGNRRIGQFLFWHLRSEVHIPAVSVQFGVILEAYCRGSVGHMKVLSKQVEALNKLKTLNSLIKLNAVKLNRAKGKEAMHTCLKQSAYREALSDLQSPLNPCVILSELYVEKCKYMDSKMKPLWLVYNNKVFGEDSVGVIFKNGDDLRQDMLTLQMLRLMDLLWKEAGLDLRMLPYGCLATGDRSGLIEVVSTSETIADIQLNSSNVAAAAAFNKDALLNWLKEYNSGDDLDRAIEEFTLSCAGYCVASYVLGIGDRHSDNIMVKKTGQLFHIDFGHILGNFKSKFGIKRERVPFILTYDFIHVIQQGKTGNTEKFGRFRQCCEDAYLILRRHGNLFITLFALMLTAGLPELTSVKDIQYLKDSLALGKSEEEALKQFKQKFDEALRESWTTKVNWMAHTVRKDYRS
Chain of recombinant human PI3Kβ (6-His(p110-p85α)) (P27986 whole entry partner): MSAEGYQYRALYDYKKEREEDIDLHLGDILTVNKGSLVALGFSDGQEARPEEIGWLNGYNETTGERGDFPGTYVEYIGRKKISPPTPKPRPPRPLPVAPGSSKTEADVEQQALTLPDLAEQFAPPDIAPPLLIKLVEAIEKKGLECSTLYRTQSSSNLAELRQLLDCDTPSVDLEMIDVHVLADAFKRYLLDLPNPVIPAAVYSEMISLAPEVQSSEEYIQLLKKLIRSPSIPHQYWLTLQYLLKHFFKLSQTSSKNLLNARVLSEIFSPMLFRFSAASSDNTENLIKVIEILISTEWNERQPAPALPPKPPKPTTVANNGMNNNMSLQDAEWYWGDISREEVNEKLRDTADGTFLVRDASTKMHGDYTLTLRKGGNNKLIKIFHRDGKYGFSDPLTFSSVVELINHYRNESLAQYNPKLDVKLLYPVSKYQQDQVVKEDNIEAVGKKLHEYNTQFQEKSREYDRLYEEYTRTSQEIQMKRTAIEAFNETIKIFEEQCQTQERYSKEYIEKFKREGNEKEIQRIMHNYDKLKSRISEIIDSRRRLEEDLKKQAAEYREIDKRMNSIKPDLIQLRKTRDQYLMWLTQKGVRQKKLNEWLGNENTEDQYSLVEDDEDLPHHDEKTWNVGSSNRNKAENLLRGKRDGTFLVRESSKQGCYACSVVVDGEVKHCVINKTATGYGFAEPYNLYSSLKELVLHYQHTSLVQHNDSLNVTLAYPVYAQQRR
Experimental: (§1) Enzymatic Activity Assay for Recombinant Human PI3K α, β, δ and γ.
(§2) The activity of recombinant human PI3Kγ ((aa144-1102)-6His) and PI3Kα, β, δ (6-His(p110-p85α)) was determined by measuring the ADP level after phosphorylation of DiC8-PIP2 using a commercially available ADP-Glo™ kit from Promega. The assay was carried out in white low volume 384 well plates in a final volume of 14 μl at R.T. The assay conditions contained the following: 50 mM Tris buffer pH 7.4, 2.1 mM DTT, 3 mM MgCl2, 0.05% CHAPS, 20 μM ATP, 80 μM DiC8-PIP2 and 1.2 nM PI3Kα, β, γ or 0.6 nM PI3Kδ. Potential inhibitors were made up in DMSO and then diluted in the assay to give a final concentration of not exceeding 1% (v/v) DMSO. […] Routinely, inhibitors were pre-incubated with 3 μl of enzyme for 15 min prior to the addition of 2 μl substrate mixture for a further 60 min enzyme reaction. The phosphorylation was stopped with the addition of 3 μl ADP-Glo™ reagent (stop solution) followed by a 40 min incubation. Prior to detection 6 μl of ADP-Glo™ Kinase Detection Reagent was added and the plates were read in a micro plate reader using a Luminescence filter. All additions were followed by a short centrifugation step.

[2] = target: recombinant human PI3Kγ ((aa144-1102)-6His) (Homo sapiens (Human), UniProt P48736); test: Enzymatic activity assay for recombinant human PI3Kγ (ADP-Glo); conditions: 1.2 nM PI3Kγ, 20 μM ATP, 80 μM DiC8-PIP2, ADP-Glo
Chain of recombinant human PI3Kγ ((aa144-1102)-6His) (P48736 144-1102): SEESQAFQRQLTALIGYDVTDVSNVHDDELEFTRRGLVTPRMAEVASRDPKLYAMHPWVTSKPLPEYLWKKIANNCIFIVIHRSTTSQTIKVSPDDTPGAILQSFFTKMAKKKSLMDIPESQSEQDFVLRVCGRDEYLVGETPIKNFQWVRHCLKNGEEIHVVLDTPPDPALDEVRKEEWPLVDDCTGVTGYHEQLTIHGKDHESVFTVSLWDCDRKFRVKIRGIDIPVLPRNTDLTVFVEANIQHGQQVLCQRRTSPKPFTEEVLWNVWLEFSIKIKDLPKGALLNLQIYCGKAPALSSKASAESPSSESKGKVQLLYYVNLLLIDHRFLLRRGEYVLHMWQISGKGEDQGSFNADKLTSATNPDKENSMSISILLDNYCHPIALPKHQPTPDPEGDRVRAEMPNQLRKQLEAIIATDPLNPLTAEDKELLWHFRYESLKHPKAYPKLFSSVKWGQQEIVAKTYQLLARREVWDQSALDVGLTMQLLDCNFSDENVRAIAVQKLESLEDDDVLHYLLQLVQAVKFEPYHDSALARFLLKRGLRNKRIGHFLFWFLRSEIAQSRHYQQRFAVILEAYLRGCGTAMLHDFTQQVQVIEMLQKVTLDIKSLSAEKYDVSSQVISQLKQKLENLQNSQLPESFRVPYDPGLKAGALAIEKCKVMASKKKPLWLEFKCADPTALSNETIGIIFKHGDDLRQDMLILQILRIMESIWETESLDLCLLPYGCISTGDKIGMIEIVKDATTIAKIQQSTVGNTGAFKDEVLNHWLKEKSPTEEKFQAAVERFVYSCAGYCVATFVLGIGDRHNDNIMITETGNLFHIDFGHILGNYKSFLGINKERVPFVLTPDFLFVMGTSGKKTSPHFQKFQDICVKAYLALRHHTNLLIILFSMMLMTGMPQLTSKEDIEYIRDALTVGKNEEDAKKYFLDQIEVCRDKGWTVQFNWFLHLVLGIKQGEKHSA
Experimental: as §1
as §2, with “PI3Kδ.” for “PI3Kδ. Potential inhibitors were made up in DMSO and then diluted in the assay to give a final concentration of not exceeding 1% (v/v) DMSO.”

[3] = target: recombinant human PI3Kα (6-His(p110-p85α)) (Homo sapiens (Human), UniProt P42336); test: Enzymatic activity assay for recombinant human PI3Kα (ADP-Glo); conditions: 1.2 nM PI3Kα, 20 μM ATP, 80 μM DiC8-PIP2, ADP-Glo
Chain of recombinant human PI3Kα (6-His(p110-p85α)) (P42336 whole entry): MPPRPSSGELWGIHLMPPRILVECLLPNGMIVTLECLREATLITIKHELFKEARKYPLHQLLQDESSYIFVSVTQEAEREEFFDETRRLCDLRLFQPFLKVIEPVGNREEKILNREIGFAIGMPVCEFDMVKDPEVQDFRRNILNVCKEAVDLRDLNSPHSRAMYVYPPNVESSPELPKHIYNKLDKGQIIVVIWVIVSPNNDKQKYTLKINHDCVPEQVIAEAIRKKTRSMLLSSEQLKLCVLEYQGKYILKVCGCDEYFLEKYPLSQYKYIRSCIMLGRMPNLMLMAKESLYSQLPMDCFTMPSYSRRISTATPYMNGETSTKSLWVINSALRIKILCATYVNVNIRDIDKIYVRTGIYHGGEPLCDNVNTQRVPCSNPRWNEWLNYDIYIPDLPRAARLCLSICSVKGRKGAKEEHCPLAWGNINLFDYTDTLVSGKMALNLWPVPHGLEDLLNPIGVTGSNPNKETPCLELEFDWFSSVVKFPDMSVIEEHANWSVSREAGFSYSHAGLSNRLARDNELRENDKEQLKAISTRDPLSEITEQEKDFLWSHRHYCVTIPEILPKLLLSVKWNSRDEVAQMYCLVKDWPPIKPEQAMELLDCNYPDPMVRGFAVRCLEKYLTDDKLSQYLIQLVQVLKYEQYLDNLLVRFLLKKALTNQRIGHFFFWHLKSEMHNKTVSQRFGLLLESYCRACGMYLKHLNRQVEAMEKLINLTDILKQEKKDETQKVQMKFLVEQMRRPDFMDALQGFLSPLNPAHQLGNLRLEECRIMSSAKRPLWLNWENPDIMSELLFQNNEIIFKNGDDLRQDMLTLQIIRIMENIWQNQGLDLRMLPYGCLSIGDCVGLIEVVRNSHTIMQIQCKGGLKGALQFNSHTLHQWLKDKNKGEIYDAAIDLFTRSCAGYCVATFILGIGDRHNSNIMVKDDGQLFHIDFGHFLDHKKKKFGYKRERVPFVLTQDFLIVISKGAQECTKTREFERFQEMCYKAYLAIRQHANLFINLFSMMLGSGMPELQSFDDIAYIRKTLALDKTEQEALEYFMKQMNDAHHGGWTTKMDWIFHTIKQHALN
Chain of recombinant human PI3Kα (6-His(p110-p85α)) (P27986 whole entry partner): as the sequence (P27986 whole entry partner) above
Experimental: as §1, §2

[4] = target: recombinant human PI3Kδ (6-His(p110-p85α)) (Homo sapiens (Human), UniProt O00329); test: Enzymatic activity assay for recombinant human PI3Kδ (ADP-Glo); conditions: 0.6 nM PI3Kδ, 20 μM ATP, 80 μM DiC8-PIP2, ADP-Glo
Chain of recombinant human PI3Kδ (6-His(p110-p85α)) (O00329 whole entry): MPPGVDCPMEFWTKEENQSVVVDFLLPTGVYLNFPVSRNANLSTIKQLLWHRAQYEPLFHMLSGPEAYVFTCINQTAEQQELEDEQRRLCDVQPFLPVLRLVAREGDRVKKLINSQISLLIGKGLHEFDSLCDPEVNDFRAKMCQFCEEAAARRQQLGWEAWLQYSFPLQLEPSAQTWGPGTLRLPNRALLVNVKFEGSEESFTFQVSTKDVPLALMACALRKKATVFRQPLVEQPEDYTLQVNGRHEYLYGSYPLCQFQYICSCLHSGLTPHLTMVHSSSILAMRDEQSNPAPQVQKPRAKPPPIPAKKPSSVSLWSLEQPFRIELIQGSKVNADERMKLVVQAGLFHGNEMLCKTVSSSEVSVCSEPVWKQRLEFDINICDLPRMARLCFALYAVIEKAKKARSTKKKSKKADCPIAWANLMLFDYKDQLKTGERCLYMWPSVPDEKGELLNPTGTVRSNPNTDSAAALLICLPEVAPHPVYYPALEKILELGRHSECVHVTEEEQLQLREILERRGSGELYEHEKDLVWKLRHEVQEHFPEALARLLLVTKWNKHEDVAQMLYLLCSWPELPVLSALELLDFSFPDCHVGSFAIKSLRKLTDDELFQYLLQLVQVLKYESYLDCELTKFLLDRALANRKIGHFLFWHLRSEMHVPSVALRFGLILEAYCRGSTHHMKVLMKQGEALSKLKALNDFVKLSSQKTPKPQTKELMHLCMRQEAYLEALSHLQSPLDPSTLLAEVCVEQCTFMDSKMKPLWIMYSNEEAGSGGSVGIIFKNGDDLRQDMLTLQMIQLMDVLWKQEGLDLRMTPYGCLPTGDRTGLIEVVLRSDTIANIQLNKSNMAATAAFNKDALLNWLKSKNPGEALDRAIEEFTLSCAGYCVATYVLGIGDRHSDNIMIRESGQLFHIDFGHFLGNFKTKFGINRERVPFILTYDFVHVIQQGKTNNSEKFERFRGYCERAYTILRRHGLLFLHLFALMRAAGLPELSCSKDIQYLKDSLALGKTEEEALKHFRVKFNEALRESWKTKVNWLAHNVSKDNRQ
Chain of recombinant human PI3Kδ (6-His(p110-p85α)) (P27986 whole entry partner): as the sequence (P27986 whole entry partner) above
Experimental: as §1
as §2, with “PI3Kδ.” for “PI3Kδ. Potential inhibitors were made up in DMSO and then diluted in the assay to give a final concentration of not exceeding 1% (v/v) DMSO.”

Row | Structure (SMILES) | IC50 [1] [nM] | IC50 [2] [nM] | IC50 [3] [nM] | IC50 [4] [nM]
1 | Cc1nc(Nc2cccc(N3CCNC3=O)n2)sc1-c1cc2c(c(S(=O)(=O)NC3COC3)c1)C(=O)N([C@@H](C)C1CC1)C2 [Example 34, 2-[(1S)-1-Cyclopropylethyl]-6-(4-methyl-2-{[6-(2-oxoimidazolidin-1-yl)pyridin-2-yl]amino}-1,3-thiazol-5-yl)-N-(oxetan-3-yl)-3-oxo-2,3-dihydro-1H-isoindole-4-sulfonamide] | 927 | 0.8 | 30 | 0.5
2 | Cc1nc(Nc2cccc(N3CCCC3=O)n2)sc1-c1cc2c(c(S(=O)(=O)NC3COC3)c1)C(=O)N([C@@H](C)C(F)(F)F)C2 [Example 37, 6-(4-Methyl-2-{[6-(2-oxopyrrolidin-1-yl)pyridin-2-yl]amino}-1,3-thiazol-5-yl)-N-(oxetan-3-yl)-3-oxo-2-[(2S)-1,1,1-trifluoropropan-2-yl]-2,3-dihydro-1H-isoindole-4-sulfonamide] | 395 | 1.1 | 67 | 0.6
3 | Cc1nc(Nc2cccc(N3CCOCC3=O)n2)sc1-c1cc2c(c(S(C)(=O)=O)c1)C(=O)N([C@@H](C)C1CC1)C2 [Example 7, 2-[(1S)-1-Cyclopropylethyl]-5-(4-methyl-2-{[6-(3-oxomorpholin-4-yl)pyridin-2-yl]amino}-1,3-thiazol-5-yl)-7-(methylsulfonyl)-2,3-dihydro-1H-isoindol-1-one] | 688 | 0.9 | 57 | –
4 | CNS(=O)(=O)c1cc(-c2sc(Nc3cccc(N4CCCNCC4=O)n3)nc2C)cc2c1C(=O)N([C@@H](C)C1CC1)C2 [Example 52, 2-[(1S)-1-Cyclopropylethyl]-N-methyl-6-(4-methyl-2-{[6-(2-oxo-1,4-diazepan-1-yl)pyridin-2-yl]amino}-1,3-thiazol-5-yl)-3-oxo-2,3-dihydro-1H-isoindole-4-sulfonamide] | – | 22.5 | – | 18.9
5 | Cc1nc(Nc2cccc(N3CCCCC3=O)n2)sc1-c1cc2c(c(S(C)(=O)=O)c1)C(=O)N([C@@H](C)C1CC1)C2 [Example 4, 2-[(1S)-1-Cyclopropylethyl]-5-(4-methyl-2-{[6-(2-oxopiperidin-1-yl)pyridin-2-yl]amino}-1,3-thiazol-5-yl)-7-(methylsulfonyl)-2,3-dihydro-1H-isoindol-1-one] | 250 | 1 | 16 | –
6 | Cc1nc(Nc2cccc(N3CCOCC3=O)n2)sc1-c1cc2c(c(S(=O)(=O)NC3COC3)c1)C(=O)N([C@@H](C)C1CC1)C2 [Example 31, 2-[(1S)-1-Cyclopropylethyl]-6-(4-methyl-2-{[6-(3-oxomorpholin-4-yl)pyridin-2-yl]amino}-1,3-thiazol-5-yl)-N-(oxetan-3-yl)-3-oxo-2,3-dihydro-1H-isoindole-4-sulfonamide] | 596 | 0.8 | 85 | –
7 | CNS(=O)(=O)c1cc(-c2sc(Nc3cccc(N4CCCCC4=O)n3)nc2C)cc2c1C(=O)N([C@@H](C)C1CC1)C2 [Example 19, 2-[(1S)-1-Cyclopropylethyl]-N-methyl-6-(4-methyl-2-{[6-(2-oxopiperidin-1-yl)pyridin-2-yl]amino}-1,3-thiazol-5-yl)-3-oxo-2,3-dihydro-1H-isoindole-4-sulfonamide] | 168 | – | 18 | –
8 | Cc1nc(Nc2cccc(N3CCCC3=O)n2)sc1-c1cc2c(c(S(C)(=O)=O)c1)C(=O)N([C@@H](C)C(F)(F)F)C2 [Example 10, 5-(4-Methyl-2-{[6-(2-oxopyrrolidin-1-yl)pyridin-2-yl]amino}-1,3-thiazol-5-yl)-7-(methylsulfonyl)-2-[(2S)-1,1,1-trifluoropropan-2-yl]-2,3-dihydro-1H-isoindol-1-one] | 575 | 0.9 | 78 | –
